For assay [1], the system named is PTI response in Arabidopsis thaliana (Col-0) leaves. The assay can be described thus: Raman spectroscopy of elicitor-infiltrated leaves, Elicitor Response Factor (ERF). The assay is classed as in vivo. The settings on record: for ERF (Elicitor Response Factor) value: WT Col-0, 1 μM elicitor, proximal region, 10 hpi; for ERF value: proximal region (PR), 48 and 72 hpi. As to the method:
Plant growth and elicitor/pathogen infiltration: Arabidopsis thaliana (Col-0) wild-type (WT) and mutants including fls2 (salk_062054), efr-2 (salk_068675), bak1 (salk_116202), bik1 (salk_005291), rbohd (salk_083046), pub12/13 (Zhou et al., 2018) and pub25/26 (Wang et al., 2018) were used. Ten-day old seedlings grown on soil were transferred to a growth room at 70% humidity and 21° C. with a 10-h-light/14-h-dark photoperiod (short-day condition). Light intensity was 100 μmol/m^2s^−1. Five to 6 week-old plants with about 17-18 leaves were used. Flg22 contains the 22-amino acid sequence […] (SEQ ID NO:1) corresponding to a conserved motif of the amino terminus of flagellin from Pseudomonas species. Elf18 contains the sequence Ac[…] (SEQ ID NO:2) corresponding to the conserved N-terminal 18-amino acid peptide of the bacterial protein elongation factor Tu (EF-Tu). These peptides (Axil Scientific Pte Ltd) were dissolved in sterile H2O to a concentration of 5 mM and aliquots of 100 μM stock solution were stored at −20° C. 3-hydroxydecanoic acid (Sigma, H3648) (Kutschera et al., 2019) was dissolved in ethanol to a concentration of 5 mM, and Chitin, GlcNacβ1-4[GlcNacβ1-4GlcNAc]5GlcNAc (ELICITYL, GLU437) was dissolved in water to a concentration of 5 mM. Aliquots of 100 μM stock solutions were stored at −20° C.
Custom-built Raman spectroscopy system and spectral data analysis: The Raman spectroscopy system with an 830 nm excitation wavelength was previously described (Huang et al., 2020). The Raman shift axis was calibrated using a polystyrene sample (Creely et al., 2005) and Raman spectra were recorded in the range of 400 cm^−1-1700 cm^−1. The 830 nm excitation wavelength has the advantage of deeper penetration depth and generating comparatively lower fluorescence background signal from the leaf tissue, resulting in spectra with a higher signal to noise ratio (SNR). The pre-processing of the Raman spectra consisted of cosmic ray removal and smoothing with the Savitzky-Golay filter function (MATLAB Inc., USA) with 5th order polynomial and frame length of 11. The Raman spectra presented here were obtained after removing any residual fluorescence background using a polynomial subtraction method with non-negative constraints (Lieber & Mahadevan-Jansen, 2003).
For Arabidopsis, two plants from each independent biological sample were investigated (Huang et al., 2020). The 7th or 8th leaf of 5-6 week-old plants were used for infiltrations (FIGS. 1A-1E) At the designated time after infiltrations, leaf discs (6 mm diameter) were excised with a puncher from regions proximal to the infiltrated sites (FIG. 2A). Two leaf discs were obtained from each elicitor-treated leaf, one from the left and the other from the right side of the central leaf vein. A total of 4 leaf discs were analyzed for each genotype per experiment. The leaf discs were placed with a drop of water between a fused silica slide of thickness 0.5 mm and a fused silica coverslip, which was 100 μm thick. Three locations were measured in each leaf disc, with 5 Raman spectra acquired per location and an exposure time of 10 s per spectrum. Thus, an average Raman spectrum of an independent biological sample was obtained from the mean of total 60 Raman spectra. The experiments were repeated with 3-4 independent biological samples.
A custom-built near infrared excitation Raman instrument (FIG. 1E) to measure Raman spectra from mock- or elicitor-infiltrated leaf samples (FIGS. 2B-2C). […]

The test system of assay [2] is PTI-specific marker genes in Arabidopsis leaves. Kind of assay: Gene expression analysis of PTI marker genes by qRT-PCR. The assay is classed as in vivo, Arabidopsis thaliana. The settings on record: infiltrated leaves, 1.0 μM elicitor. As for the experimental part:
RNA extraction and gene expression analysis by qRT-PCR: Total RNA was extracted from the entire infiltrated leaf using RNeasy plant mini kit (74104; Qiagen) with DNase I (79254; Qiagen) treatment. cDNA synthesis and RT-PCR were performed as described (Park et al., 2019). Expression of the Arabidopsis Act2 (At3g18780) was used as an internal control. Primer pairs for quantitative RT-PCR were designed using Primer-BLAST (https://www.ncbi.nlm.nih.gov/tools/primer-blast/index.cgi) or manually by eye.
flg22 and elf18 were used to induce plant innate immunity responses without related pathogenic symptoms (Bektas & Eulgem, 2015). To reduce variability between biological samples, Arabidopsis wild-type (Col-0) and mutant plants were grown under short-day conditions for about 5-6 weeks with about 17-18 leaves (Farmer et al., 2013; Kurenda et al., 2019) (FIG. 1A). The abaxial side of leaf 7th or 8th was infiltrated with a needleless syringe containing (50 μl) water, 1.0 μM flg22 or 1.0 μM elf18 (FIG. 1B). […] However, compared to mock infiltration, infiltration of either elicitor induced expression of PTI-specific marker genes of the PTI pathway but with different kinetics (FIGS. 3A-3C). […] Expression of most activated genes returned to basal levels by 24 hours (FIGS. 3A-3C) although several genes (PR1, WRYK29, and WRKY53) still maintained high expression levels at this time point.

Assay [3] has as its system PTI response in Arabidopsis thaliana (Col-0) leaves. The assay can be described thus: Raman spectroscopy of elicitor-infiltrated leaves, Elicitor Response Factor (ERF). The assay is classed as in vivo. The settings on record: WT, 1 μM elicitor, distal region (DR).
[4] abbreviates: fls2 mutant, 24 hpi, 1 μM elicitor.

The values below come from patent US20260243686A1, “REAL TIME DETECTION AND QU[…] PLANT INNATE IMMUNITY RESPONSE USING RAMAN SPECTROSCOPY” (TEMASEK LIFE SCIENCES […], priority 2021, published 2026).

Ends that are not written are not given here.

Regarding “AcSKEKFERTKPHVNVGTIG (SEQ ID NO:2) (Ac-SKEKFERTKPHVNVGTIG; listed as Pseudomonas sp.) [elf18, conserved N-terminal 18-amino acid peptide of the bacterial protein elongation factor Tu (EF-Tu)]”, in assay [1], the “ERF (Elicitor Response Factor) value” is recorded as 0.63×10^4. Besides, the ERF value result in assay [1] (WT, 1 μM elicitor) was “decreased to almost zero”; in assay [3], “Lower ERF value”. The “Raman peak at 1065 cm^−1” value in assay [1] (WT, 24 hpi) is on record as “specifically resulted in changes”. In addition, the Raman/ERF response entry in assay [1] (setting [4]) is recorded as “remained responsive”. In assay [2], the “innate immunity response (gene expression and callose deposition data together)” value was “induced rapid and robust innate immunity response”.

Regarding “QRLSTGSRINSAKDDAAGLQIA (SEQ ID NO:1) (listed as Pseudomonas sp.) [flg22]”, in assay [1], the “ERF (Elicitor Response Factor) value” is recorded as 1.12×10^4. In assay [1] (WT, 1 μM elicitor), the “increase of ERF value from 10 hpi to 24 hpi” value is “about 8 times”. The ERF value entry in assay [1] (WT, 1 μM elicitor) was “decreased to almost zero”; in assay [3], “Low ERF values”. Also, the “Raman peak intensity at 789.7 cm^−1” value in assay [1] (WT, 24 hpi) is on record as “statistically significant change”. Besides, the Raman/ERF response entry is “responded” in assay [1] (efr-2 mutant, 24 hpi, 1 μM elicitor) and “refractory” in assay [1] (setting [4]). Further, the “innate immunity response (gene expression and callose deposition data together)” value in assay [2] is “induced rapid and robust innate immunity response”.
